# Entries after “also recorded” stand apart in the source; their conditions may differ. Like-named read-outs stand apart in the source and are kept apart here.
# How the values were obtained:
# [1] = Stability in mouse plasma; type: in vitro ADME
# [2] = test system: human derived patient TNBC tumor (PDX); experiment: TNBC PDX mice; type: in vivo; conditions: 200 mg/kg orally five times/week, in olive oil; day 27; listed as Csbl-1
# Method: FIG. 8, panels A-C, show the effect of Csbl-1 on TNBC PDX mice. Csbl-1 was dissolved in olive oil. Five mice with TNBC were treated orally with Csbl-1 at 200 mg/kg five times/week vs 4 control mice without the treatment.
# The next step was to evaluate the effect of Csbl-1 in mice bearing TNBC tumors. Given the fact that higher ILK expression level is correlated with poor outcome and reduced survival for TNBC patients (FIG. 6) and the above TNBC cell-based data, we decided to test whether Csbl-1 would be effective in suppressing the TNBC tumors in mice. […] Xenograft TNBC tumors were generated using MDA-MB231 on 8 mice. […] when the tumors were ˜3 mm, 4 mice were fed with Csbl-1 at 100 mg/kg five times/week and the other 4 mice (control, no drug) had no Csbl-1 treatment. […] We also examined the Csbl-1 effect on the mouse models with human derived patient TNBC tumor (PDX).
# [3] = test system: MDA-MB-231 cells; experiment: Proliferation of triple negative breast cancer MDA-MB-231 cells; type: cell-based
# Method: (§1) Cells were seeded at 20,000 cells/ml in 12 well plates in complete media. On day 3, the compounds were added at final 2 μM and the cells were counted every 3 days. […] Cells were seeded at 10,000 cells/ml in 12 well plates in complete media. The compounds were added at final 2 μM on day 2 and the cells were counted every 2 days.
# [4] = Stability in SIF; type: physicochemical
# [5] = Protein binding in human plasma; type: in vitro ADME
# [6] = target: CYP 2C19 (Homo sapiens (Human), UniProt P33261); experiment: CYP inhibition in human liver microsomes, 2C19; type: in vitro ADME
# [7] = target: ILK-PINCH-Parvin (IPP) complex (Homo sapiens (Human), UniProt Q13418); experiment: IPP-mediated actin bundling assay; type: biochemical; conditions: FIG. 4
# From the text: Next, we set out to obtain in vitro evidence of Csbl-1. […] Mutation of L207 into bulky Trp in ILK abolished the MgATP binding to ILK and impaired the formation and morphology of actin bundles (Vaynberg et al., 2018). Using the same actin bundling assay, we examined the effect of Csbl-1 on the IPP-mediated actin bundling. […] In general, more bundles with smaller sizes were observed as a result of Csbl-1 interference. Csbl-1 would knock out MgATP at the ILK site and increase the local concentration of Mg^2+, which may impact the actin bundling process (Tang and Janmey, 1996, Vaynberg et al., 2018).
# [8] = Stability in PBS at pH 7.4; type: physicochemical
# [9] = Metabolic stability in mouse liver microsomes; type: in vitro ADME; conditions: for Remaining Percentage (%): Mouse
# [10] = target: purified EGFR (Homo sapiens (Human), UniProt P00533); experiment: kinase assay using purified EGFR; type: biochemical
# [11] = Protein binding in mouse plasma; type: in vitro ADME
# [12] = Stability in rat plasma; type: in vitro ADME
# [13] = target: purified recombinant ILK (Homo sapiens (Human), UniProt Q13418); experiment: ILK binding affinity, EnSpire fluorescence intensity
# [14] = Metabolic stability in human liver microsomes; type: in vitro ADME; conditions: for Remaining Percentage (%): Human
# [15] = Stability in human plasma; type: in vitro ADME
# [16] = test system: MCF10a cells; experiment: Proliferation of normal breast MCF10a cells; type: cell-based; conditions: compounds at final 2 μM, FIG. 5 panel A
# Method: as §1
# [17] = target: CYP 1A2 (Homo sapiens (Human), UniProt P05177); experiment: CYP inhibition in human liver microsomes, 1A2; type: in vitro ADME
# [18] = target: EGFR (Homo sapiens (Human), UniProt P00533); experiment: EGFR binding affinity, EnSpire fluorescence intensity; conditions: same experimental conditions as ILK
# [19] = target: CYP 2A6 (Homo sapiens (Human), UniProt P11509); experiment: CYP inhibition in human liver microsomes, 2A6; type: in vitro ADME
# Sequence of CYP 2A6 (P11509 whole entry): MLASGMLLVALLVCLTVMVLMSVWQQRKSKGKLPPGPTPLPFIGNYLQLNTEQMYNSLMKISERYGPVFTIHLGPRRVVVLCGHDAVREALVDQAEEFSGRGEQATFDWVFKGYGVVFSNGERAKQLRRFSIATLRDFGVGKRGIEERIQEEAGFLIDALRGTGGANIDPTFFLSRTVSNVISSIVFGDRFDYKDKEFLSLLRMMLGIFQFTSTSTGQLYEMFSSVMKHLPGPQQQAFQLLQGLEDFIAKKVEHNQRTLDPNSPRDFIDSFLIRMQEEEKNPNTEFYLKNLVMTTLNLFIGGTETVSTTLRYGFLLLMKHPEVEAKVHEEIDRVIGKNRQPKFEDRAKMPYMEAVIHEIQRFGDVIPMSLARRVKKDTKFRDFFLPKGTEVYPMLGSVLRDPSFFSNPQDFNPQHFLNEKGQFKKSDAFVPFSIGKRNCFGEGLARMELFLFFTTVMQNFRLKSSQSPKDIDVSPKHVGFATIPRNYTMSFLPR
# Sequence of purified recombinant ILK (Q13418 whole entry): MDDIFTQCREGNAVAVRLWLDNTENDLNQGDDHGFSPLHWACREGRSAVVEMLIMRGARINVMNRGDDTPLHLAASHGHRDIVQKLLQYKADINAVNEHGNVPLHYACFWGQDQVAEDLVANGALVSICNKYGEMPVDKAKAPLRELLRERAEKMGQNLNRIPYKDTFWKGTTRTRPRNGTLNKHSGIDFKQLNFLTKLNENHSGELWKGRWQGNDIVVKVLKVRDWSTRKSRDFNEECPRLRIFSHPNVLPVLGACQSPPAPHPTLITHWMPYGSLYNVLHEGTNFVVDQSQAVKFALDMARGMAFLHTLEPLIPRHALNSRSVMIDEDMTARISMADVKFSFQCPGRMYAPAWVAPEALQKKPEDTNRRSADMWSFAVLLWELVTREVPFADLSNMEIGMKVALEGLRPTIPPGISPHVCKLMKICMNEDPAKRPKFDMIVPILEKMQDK
# Sequence of CYP 2C19 (P33261 whole entry): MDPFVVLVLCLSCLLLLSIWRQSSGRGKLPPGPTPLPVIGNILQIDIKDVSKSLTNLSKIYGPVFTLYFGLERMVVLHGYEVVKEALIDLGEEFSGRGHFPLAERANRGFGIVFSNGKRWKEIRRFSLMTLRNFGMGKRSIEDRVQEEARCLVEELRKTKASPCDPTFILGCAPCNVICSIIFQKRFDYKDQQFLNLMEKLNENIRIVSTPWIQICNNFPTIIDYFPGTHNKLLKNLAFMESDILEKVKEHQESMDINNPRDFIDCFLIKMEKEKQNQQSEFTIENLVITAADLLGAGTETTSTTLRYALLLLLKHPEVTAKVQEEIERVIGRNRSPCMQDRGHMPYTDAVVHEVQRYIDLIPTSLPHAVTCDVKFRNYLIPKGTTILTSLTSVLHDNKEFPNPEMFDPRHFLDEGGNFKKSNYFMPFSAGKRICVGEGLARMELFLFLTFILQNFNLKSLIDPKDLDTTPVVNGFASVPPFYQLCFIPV
# Sequence of CYP 1A2 (P05177 whole entry): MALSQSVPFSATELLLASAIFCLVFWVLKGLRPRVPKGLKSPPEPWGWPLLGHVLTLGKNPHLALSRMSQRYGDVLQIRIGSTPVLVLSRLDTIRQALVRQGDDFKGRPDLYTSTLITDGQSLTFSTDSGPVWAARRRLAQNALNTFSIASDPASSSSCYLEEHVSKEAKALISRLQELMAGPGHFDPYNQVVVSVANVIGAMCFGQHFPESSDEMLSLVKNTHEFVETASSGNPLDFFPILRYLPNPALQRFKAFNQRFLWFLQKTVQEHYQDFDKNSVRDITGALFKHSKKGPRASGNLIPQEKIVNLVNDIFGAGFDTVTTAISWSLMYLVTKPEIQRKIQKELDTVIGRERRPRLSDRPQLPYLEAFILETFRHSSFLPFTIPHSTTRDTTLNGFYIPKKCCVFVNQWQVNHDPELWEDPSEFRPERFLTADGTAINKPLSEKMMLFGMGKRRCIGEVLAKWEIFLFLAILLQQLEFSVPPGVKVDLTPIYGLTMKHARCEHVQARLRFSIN
# Sequence of ILK-PINCH-Parvin (IPP) complex (Q13418 whole entry): as the sequence (Q13418 whole entry) above
# Sequence of ILK-PINCH-Parvin (IPP) complex (P48059 whole entry partner): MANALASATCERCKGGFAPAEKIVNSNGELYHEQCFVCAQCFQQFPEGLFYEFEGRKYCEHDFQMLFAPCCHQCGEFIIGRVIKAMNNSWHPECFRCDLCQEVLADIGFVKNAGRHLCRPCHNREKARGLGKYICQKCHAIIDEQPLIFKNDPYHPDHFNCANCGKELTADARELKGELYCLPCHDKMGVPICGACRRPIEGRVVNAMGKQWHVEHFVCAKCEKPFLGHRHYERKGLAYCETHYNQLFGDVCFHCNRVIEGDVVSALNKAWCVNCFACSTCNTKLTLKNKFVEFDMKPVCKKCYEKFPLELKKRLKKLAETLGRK
# Sequence of ILK-PINCH-Parvin (IPP) complex (Q9NVD7 whole entry partner): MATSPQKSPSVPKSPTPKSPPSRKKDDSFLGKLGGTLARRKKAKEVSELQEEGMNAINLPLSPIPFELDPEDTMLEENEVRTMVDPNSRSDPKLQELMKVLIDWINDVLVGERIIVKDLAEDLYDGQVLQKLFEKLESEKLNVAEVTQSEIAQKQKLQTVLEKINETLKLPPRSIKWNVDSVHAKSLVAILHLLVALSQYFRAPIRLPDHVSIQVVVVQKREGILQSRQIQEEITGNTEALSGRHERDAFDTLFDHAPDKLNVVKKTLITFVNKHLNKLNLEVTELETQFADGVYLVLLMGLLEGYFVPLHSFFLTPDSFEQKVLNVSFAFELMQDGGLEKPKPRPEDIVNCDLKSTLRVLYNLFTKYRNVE
# Sequence of EGFR (P00533 25-1210): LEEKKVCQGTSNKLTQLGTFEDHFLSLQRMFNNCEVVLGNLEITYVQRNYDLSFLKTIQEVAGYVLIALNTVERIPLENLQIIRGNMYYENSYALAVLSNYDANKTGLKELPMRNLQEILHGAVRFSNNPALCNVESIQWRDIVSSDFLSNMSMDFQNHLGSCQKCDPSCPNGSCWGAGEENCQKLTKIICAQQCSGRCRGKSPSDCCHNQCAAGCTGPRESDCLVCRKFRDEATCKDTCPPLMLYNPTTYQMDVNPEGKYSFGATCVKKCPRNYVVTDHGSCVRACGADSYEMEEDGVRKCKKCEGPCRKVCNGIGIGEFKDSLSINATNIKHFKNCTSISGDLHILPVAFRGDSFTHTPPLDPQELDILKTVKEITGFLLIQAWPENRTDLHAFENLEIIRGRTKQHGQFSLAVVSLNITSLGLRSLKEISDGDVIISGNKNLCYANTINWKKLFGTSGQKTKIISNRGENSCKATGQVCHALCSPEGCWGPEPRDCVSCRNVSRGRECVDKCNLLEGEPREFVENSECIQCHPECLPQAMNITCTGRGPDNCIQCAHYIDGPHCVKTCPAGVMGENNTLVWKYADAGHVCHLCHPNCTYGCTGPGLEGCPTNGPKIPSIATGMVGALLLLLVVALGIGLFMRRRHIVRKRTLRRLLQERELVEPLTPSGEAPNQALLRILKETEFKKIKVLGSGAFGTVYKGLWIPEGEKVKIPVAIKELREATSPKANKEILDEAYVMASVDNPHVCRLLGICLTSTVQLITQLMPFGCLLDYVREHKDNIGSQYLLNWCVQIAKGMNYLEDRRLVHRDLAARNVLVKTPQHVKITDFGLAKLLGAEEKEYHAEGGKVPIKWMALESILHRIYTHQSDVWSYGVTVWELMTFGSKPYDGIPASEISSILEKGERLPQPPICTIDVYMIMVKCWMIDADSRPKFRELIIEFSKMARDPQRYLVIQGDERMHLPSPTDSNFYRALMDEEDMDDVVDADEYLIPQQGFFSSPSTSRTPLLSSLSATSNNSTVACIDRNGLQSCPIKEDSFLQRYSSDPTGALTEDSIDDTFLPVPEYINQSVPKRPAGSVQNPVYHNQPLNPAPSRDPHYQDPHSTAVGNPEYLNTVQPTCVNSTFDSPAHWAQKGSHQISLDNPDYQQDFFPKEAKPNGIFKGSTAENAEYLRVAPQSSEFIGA
smiles,measurement,setting,value
C#Cc1cc(Nc2ncnc3cc(OCCOC)ccc23)cc(OCCOCC)c1 [Compound 1],Remaining Percentage (%),[1]; 0 min,100.00%
same,Remaining Percentage (%),[1]; 15 min,96.17%
same,Remaining Percentage (%),[1]; 30 min,96.17%
same,Remaining Percentage (%),[1]; 45 min,97.56%
same,Remaining Percentage (%),[1]; 60 min,96.17%
same,Remaining Percentage (%),[1]; 120 min,93.73%
same,TNBC tumor growth in PDX mice,[2],effectively inhibited TNBC tumor growth; also recorded: significantly reduced
same,IC50,"[3]; Homo sapiens, MDA-MB-231, read-out: IC50 on MDA-MB-231",~0.19 µM
same,effect on proliferation of MDA-MB-231 cells,"[3]; compounds at final 2 μM, FIG. 5 panel B",substantially inhibited the proliferation
same,Remaining Percentage (%),[4]; 0 min,100.00%
same,Remaining Percentage (%),[4]; 30 min,104.86%
same,Remaining Percentage (%),[4]; 60 min,109.34%
same,Remaining Percentage (%),[4]; 120 min,105.85%
same,Remaining Percentage (%),[4]; 180 min,108.93%
same,Remaining Percentage (%),[4]; 240 min,109.26%
same,recovery,[5],98.8%
same,fraction unbound,[5]; read-out: % Bound (converted),0.0303
same,IC50,[6],10.8 µM
same,effect on IPP-induced actin bundles,[7],substantial change of IPP-induced actin bundles
same,Remaining Percentage (%),"[8]; PBS pH 7.4, 0 min",100.00%
same,Remaining Percentage (%),"[8]; PBS pH 7.4, 30 min",102.02%
same,Remaining Percentage (%),"[8]; PBS pH 7.4, 60 min",105.41%
same,Remaining Percentage (%),"[8]; PBS pH 7.4, 120 min",103.04%
same,Remaining Percentage (%),"[8]; PBS pH 7.4, 180 min",104.93%
same,Remaining Percentage (%),"[8]; PBS pH 7.4, 240 min",99.54%
same,half-life,[9]; Mouse liver microsomes,35.4 min
same,microsomal CLint,"[9]; Mouse liver microsomes, read-out: CLint (μL/min/mg protein)",39.2 µL/min/mg
same,CLint scaled,"[9]; Mouse liver microsomes, read-out: Scaled-up CLint",172 mL/min/kg
same,Remaining Percentage (%),"[9]; With NADPH, 0 min",100.00%
same,Remaining Percentage (%),"[9]; With NADPH, 15 min",72.40%
same,Remaining Percentage (%),"[9]; With NADPH, 30 min",51.67%
same,Remaining Percentage (%),"[9]; With NADPH, 45 min",37.39%
same,Remaining Percentage (%),"[9]; With NADPH, 60 min",32.04%
same,Remaining Percentage (%),"[9]; Without NADPH, 0 min",100.00%
same,Remaining Percentage (%),"[9]; Without NADPH, 15 min",93.90%
same,Remaining Percentage (%),"[9]; Without NADPH, 30 min",93.90%
same,Remaining Percentage (%),"[9]; Without NADPH, 45 min",91.46%
same,Remaining Percentage (%),"[9]; Without NADPH, 60 min",94.51%
same,IC50,[10],77.2 µM
same,recovery,[11],110%
same,fraction unbound,[11]; read-out: % Bound,0.01
same,Remaining Percentage (%),[12]; 0 min,100.00%
same,Remaining Percentage (%),[12]; 15 min,92.93%
same,Remaining Percentage (%),[12]; 30 min,94.35%
same,Remaining Percentage (%),[12]; 45 min,93.29%
same,Remaining Percentage (%),[12]; 60 min,94.70%
same,Remaining Percentage (%),[12]; 120 min,91.52%
same,Binding Difference ILK (Kd)/EGFR (Kd),[13]; EnSpire fluorescence intensity,0.1565
same,Kd,"[13]; EnSpire fluorescence intensity, read-out: ILK - Binding affinity",2.77 µM
same,Kd,"[13]; fluorescence-based binding assay, purified ILK, read-out: KD to ILK",~2.77 µM
same,half-life,[14]; Human Liver Microsomes,34.8 min
same,microsomal CLint,"[14]; Human Liver Microsomes, read-out: CLint (μL/min/mg protein)",39.8 µL/min/mg
same,CLint scaled,"[14]; Human Liver Microsomes, read-out: Scaled-up CLint",49.9 mL/min/kg
same,Remaining Percentage (%),"[14]; With NADPH, 0 min",100.00%
same,Remaining Percentage (%),"[14]; With NADPH, 15 min",70.61%
same,Remaining Percentage (%),"[14]; With NADPH, 30 min",51.77%
same,Remaining Percentage (%),"[14]; With NADPH, 45 min",38.83%
same,Remaining Percentage (%),"[14]; With NADPH, 60 min",30.40%
same,Remaining Percentage (%),"[14]; Without NADPH, 0 min",100.00%
same,Remaining Percentage (%),"[14]; Without NADPH, 15 min",98.20%
same,Remaining Percentage (%),"[14]; Without NADPH, 30 min",92.81%
same,Remaining Percentage (%),"[14]; Without NADPH, 45 min",89.22%
same,Remaining Percentage (%),"[14]; Without NADPH, 60 min",103.59%
same,Remaining Percentage (%),[15]; 0 min,100.00%
same,Remaining Percentage (%),[15]; 15 min,93.79%
same,Remaining Percentage (%),[15]; 30 min,93.79%
same,Remaining Percentage (%),[15]; 45 min,90.52%
same,Remaining Percentage (%),[15]; 60 min,90.20%
same,Remaining Percentage (%),[15]; 120 min,88.56%
same,effect on proliferation of MCF10a cells,[16],little effect
same,IC50,[17],33.3 µM
same,KD to EGFR,[18],too weak to be accurately determined
same,IC50,[19],> 50 µM
